PubChem BioAssay AID330 (DTP/NCI, 2004)
Several values for one entry are separate records, joined by “and”; a condition that tells them apart may be missing. Identical values can stand only once. Inconclusive results and toxic doses are left out.

Tested on: P388 leukemia ip, CD2F1 mice, survival T/C
Test: NCI In Vivo Anticancer Drug Screen. Data for tumor model P388 Leukemia (intraperitoneal) in CD2F1 (CDF1) mice
Settings: endpoint: median survival time, higher = longer survival
Outline: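 Mice carrying the transplanted tumor received test compound or vehicle. Survival was recorded in each group, and the value is the treated-group measurement divided by that of the vehicle-treated control group.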

[1] = dose: 50.0 mg/kg/injection, schedule: Q01DX009 (ip), vehicle: saline with Tween-80
[2] = dose: 100.0 mg/kg/injection, schedule: Q01DX009 (ip), vehicle: saline with Tween-80
[3] = dose: 50.0 mg/kg/injection, schedule: Q01DX005 (ip), vehicle: saline with Tween-80
[4] = dose: 200.0 mg/kg/injection, schedule: Q01DX005 (ip), vehicle: saline with Tween-80
[5] = dose: 100.0 mg/kg/injection, schedule: Q01DX005 (ip), vehicle: saline with Tween-80
[6] = dose: 50.0 mg/kg/injection, schedule: Q01DX005 (ip), vehicle: Klucel (hydroxypropylcellulose) (HPC)
[7] = dose: 100.0 mg/kg/injection, schedule: Q01DX005 (ip), vehicle: Klucel (hydroxypropylcellulose) (HPC)
[8] = dose: 200.0 mg/kg/injection, schedule: Q01DX005 (ip), vehicle: Klucel (hydroxypropylcellulose) (HPC)
[9] = dose: 200.0 mg/kg/injection, schedule: Q01DX009 (ip), vehicle: saline with Tween-80
[10] = dose: 60.0 mg/kg/injection, schedule: Q01DX005 (ip), vehicle: saline with Tween-80
[11] = dose: 120.0 mg/kg/injection, schedule: Q01DX005 (ip), vehicle: saline with Tween-80
[12] = dose: 240.0 mg/kg/injection, schedule: Q01DX005 (ip), vehicle: saline with Tween-80
[13] = dose: 100.0 mg/kg/injection, schedule: Q01DX005 (ip), vehicle: water
[14] = dose: 50.0 mg/kg/injection, schedule: Q01DX009 (ip), vehicle: saline
[15] = dose: 100.0 mg/kg/injection, schedule: Q01DX009 (ip), vehicle: saline
[16] = dose: 25.0 mg/kg/injection, schedule: Q01DX009 (ip), vehicle: Klucel (hydroxypropylcellulose) (HPC)
[17] = dose: 50.0 mg/kg/injection, schedule: Q01DX009 (ip), vehicle: Klucel (hydroxypropylcellulose) (HPC)

SMILES: CC(N)C(=O)NCC(=O)NCC(=O)O (stereo not drawn)
- T/C (dose: 50.0 mg/kg/injection, schedule: Q01DX005 (ip), vehicle: saline): 100 % of control
- T/C (dose: 100.0 mg/kg/injection, schedule: Q01DX005 (ip), vehicle: saline): 106 % of control
- T/C (dose: 200.0 mg/kg/injection, schedule: Q01DX005 (ip), vehicle: saline): 99 % of control

SMILES: CCC(SC)C(=O)c1ccccc1 (stereo not drawn)
- T/C (dose: 25.0 mg/kg/injection, schedule: Q01DX009 (ip), vehicle: saline with Tween-80): 114 % of control
- T/C [1]: 100 % of control
- T/C [2]: 101 % of control

SMILES: CC(=O)Cc1nc2ccccc2s1
- T/C (dose: 25.0 mg/kg/injection, schedule: Q04DX002 (ip), vehicle: saline with Tween-80): 104 % of control
- T/C (dose: 50.0 mg/kg/injection, schedule: Q04DX002 (ip), vehicle: saline with Tween-80): 107 % of control
- T/C (dose: 100.0 mg/kg/injection, schedule: Q04DX002 (ip), vehicle: saline with Tween-80): 102 % of control

SMILES: COc1cc2cc(c1Cl)N(C)C(=O)CC(OC(=O)C(C)N(C)C(=O)C(C)C)C1(C)OC1C(C)C1CC(O)(NC(=O)O1)C(OC)/C=C/C=C(C)C2O (stereo not drawn)
- T/C (dose: 0.02 mg/kg/injection, schedule: Q01DX009 (ip), vehicle: steriod suspending solution): 168 % of control
- T/C (dose: 0.05 mg/kg/injection, schedule: Q01DX009 (ip), vehicle: steriod suspending solution): 150 % of control
- T/C (dose: 0.1 mg/kg/injection, schedule: Q01DX009 (ip), vehicle: steriod suspending solution): 186 % of control
- T/C (dose: 0.2 mg/kg/injection, schedule: Q01DX009 (ip), vehicle: steriod suspending solution): 213 % of control
- T/C (dose: 32.0 micrograms/kg/injection, schedule: Q01DX009 (ip), vehicle: distilled water + alcohol): 159 % of control

SMILES: O=C(Oc1ccc(C2c3cc(OC(=O)c4ccccc4)c(OC(=O)c4ccccc4)cc3CC3C(=O)OCC32)cc1OC(=O)c1ccccc1)c1ccccc1 (stereo not drawn)
- T/C [3]: 88 % of control
- T/C [4]: 86 % of control

SMILES: Nc1c2cc3c(cc2c[n+]2ccc4ccccc4c12)OCO3
- T/C (dose: 6.25 mg/kg/injection, schedule: Q04DX003 (ip), vehicle: distilled water + Tween-80): 111 % of control and 113 % of control and 115 % of control
- T/C (dose: 12.5 mg/kg/injection, schedule: Q04DX003 (ip), vehicle: distilled water + Tween-80): 113 % of control and 116 % of control and 120 % of control
- T/C (dose: 25.0 mg/kg/injection, schedule: Q04DX003 (ip), vehicle: distilled water + Tween-80): 111 % of control (2×) and 123 % of control

SMILES: Oc1ccc(/C=N/N=C/c2ccc(O)c(O)c2)cc1O
- T/C [3]: 121 % of control
- T/C [5]: 106 % of control and 119 % of control
- T/C [4]: 113 % of control
- T/C (dose: 400.0 mg/kg/injection, schedule: Q01DX005 (ip), vehicle: saline with Tween-80): 121 % of control

SMILES: CN(C)C1=CC(=S)NC2CCCCC12 (stereo not drawn)
- T/C [6]: 99 % of control
- T/C [7]: 95 % of control
- T/C [8]: 102 % of control

SMILES: COc1cc(O)c2c(c1N)C(=O)c1ccccc1C2=O
- T/C [6]: 105 % of control
- T/C [7]: 106 % of control
- T/C [8]: 101 % of control

SMILES: CCOC1CC(C)(C)c2c(-c3ccccc3)nn(-c3ccccc3)c2O1 (stereo not drawn)
- T/C [1]: 94 % of control
- T/C [2]: 100 % of control
- T/C [9]: 98 % of control

SMILES: Cc1no[n+]([O-])c1C(N)=O
- T/C [10]: 101 % of control
- T/C [11]: 100 % of control
- T/C [12]: 102 % of control

SMILES: O=C(CC(=O)c1ccc(Cl)c(Cl)c1)Cc1ccc2ccccc2n1
- T/C [10]: 90 % of control
- T/C [11]: 97 % of control
- T/C [12]: 88 % of control

SMILES: OC(CCl)CN1CCN(CC(O)CCl)CC1 (stereo not drawn)
- T/C (dose: 25.0 mg/kg/injection, schedule: Q01DX005 (ip), vehicle: water): 150 % of control
- T/C [13]: 90 % of control and 92 % of control

SMILES: C/C(=N\OCC(O)CNCCNC(=O)C(C)C)c1ccc(N(C)C)cc1 (stereo not drawn)
- T/C (dose: 60.0 mg/kg/injection, schedule: Q01DX005 (ip), vehicle: Klucel (hydroxypropylcellulose) (HPC)): 98 % of control
- T/C (dose: 120.0 mg/kg/injection, schedule: Q01DX005 (ip), vehicle: Klucel (hydroxypropylcellulose) (HPC)): 99 % of control

SMILES: Cc1nnc2n1-c1ccc(Cl)cc1C(c1ccccc1)=[N+]([O-])C2
- T/C [1]: 103 % of control
- T/C [2]: 104 % of control

SMILES: c1ccc(Sc2ncccn2)nc1
- T/C [14]: 108 % of control
- T/C [15]: 115 % of control

SMILES: CCOP(=O)(Nc1ccccc1OC)OCC
- T/C [14]: 104 % of control
- T/C (dose: 100.0 mg/kg/injection, schedule: Q01DX001 (ip), vehicle: saline): 110 % of control
- T/C [15]: 107 % of control
- T/C (dose: 200.0 mg/kg/injection, schedule: Q01DX001 (ip), vehicle: saline): 105 % of control
- T/C (dose: 200.0 mg/kg/injection, schedule: Q01DX009 (ip), vehicle: saline): 100 % of control
- T/C (dose: 400.0 mg/kg/injection, schedule: Q01DX001 (ip), vehicle: saline): 102 % of control

SMILES: C1=C(c2ccccc2)N=C(c2nncc3ccccc23)C1(c1ccccc1)c1ccccc1
- T/C (dose: 100.0 mg/kg/injection, schedule: Q04DX003 (ip), vehicle: saline with Tween-80): 101 % of control
- T/C (dose: 200.0 mg/kg/injection, schedule: Q04DX003 (ip), vehicle: saline with Tween-80): 101 % of control
- T/C (dose: 400.0 mg/kg/injection, schedule: Q04DX003 (ip), vehicle: saline with Tween-80): 96 % of control

SMILES: CC(C)(C)OC(=O)NC(Cc1ccccc1)C(=O)O (stereo not drawn)
- T/C (dose: 6.25 mg/kg/injection, schedule: Q01DX009 (ip), vehicle: Klucel (hydroxypropylcellulose) (HPC)): 101 % of control and 105 % of control
- T/C (dose: 12.5 mg/kg/injection, schedule: Q01DX009 (ip), vehicle: Klucel (hydroxypropylcellulose) (HPC)): 107 % of control
- T/C [16]: 100 % of control and 88 % of control
- T/C [17]: 111 % of control and 88 % of control
- T/C (dose: 100.0 mg/kg/injection, schedule: Q01DX009 (ip), vehicle: Klucel (hydroxypropylcellulose) (HPC)): 110 % of control and 97 % of control
- T/C (dose: 200.0 mg/kg/injection, schedule: Q01DX009 (ip), vehicle: Klucel (hydroxypropylcellulose) (HPC)): 107 % of control and 97 % of control

SMILES: CC1=C(C)C2(C)c3ccccc3NC(=S)C12C (stereo not drawn)
- T/C (dose: 100.0 mg/kg/injection, schedule: Q01DX001 (ip), vehicle: Klucel (hydroxypropylcellulose) (HPC)): 101 % of control
- T/C (dose: 200.0 mg/kg/injection, schedule: Q01DX001 (ip), vehicle: Klucel (hydroxypropylcellulose) (HPC)): 105 % of control
- T/C (dose: 400.0 mg/kg/injection, schedule: Q01DX001 (ip), vehicle: Klucel (hydroxypropylcellulose) (HPC)): 102 % of control

SMILES: CCOc1cc2c(cc1C/C=C/c1ccccc1)OCO2
- T/C [3]: 100 % of control
- T/C [5]: 110 % of control
- T/C [4]: 101 % of control

SMILES: O=C(O)CCCC(=O)c1ccc2ccccc2c1
- T/C [1]: 98 % of control
- T/C [2]: 98 % of control
- T/C [9]: 99 % of control

SMILES: CCOC(=O)N1c2ccccc2C(c2ccccc2)=NC1(C)C#N (stereo not drawn)
- T/C [3]: 97 % of control
- T/C [5]: 99 % of control
- T/C [4]: 99 % of control

SMILES: CCC1(O)C(=O)OCc2c1cc1n(c2=O)Cc2c-1nc1ccccc1c2OC (stereo not drawn)
- T/C (dose: 6.25 mg/kg/injection, schedule: Q01DX009 (ip), vehicle: saline): 103 % of control
- T/C (dose: 12.5 mg/kg/injection, schedule: Q01DX009 (ip), vehicle: saline): 100 % of control
- T/C (dose: 25.0 mg/kg/injection, schedule: Q01DX009 (ip), vehicle: saline): 108 % of control

SMILES: Cn1c(=O)c2c(ncn2CCNC(c2ccccc2)c2ccccc2)n(C)c1=O
- T/C (dose: 50.0 mg/kg/injection, schedule: Q01DX005 (ip), vehicle: water): 107 % of control
- T/C [13]: 107 % of control
- T/C (dose: 200.0 mg/kg/injection, schedule: Q01DX005 (ip), vehicle: water): 107 % of control

SMILES: CCOc1ccccc1N=Nc1c(C)nn(C(=S)S)c1OCC
- T/C (dose: 60.0 mg/kg/injection, schedule: Q01DX005 (ip), vehicle: Klucel + Tween-80): 97 % of control
- T/C (dose: 120.0 mg/kg/injection, schedule: Q01DX005 (ip), vehicle: Klucel + Tween-80): 95 % of control
- T/C (dose: 240.0 mg/kg/injection, schedule: Q01DX005 (ip), vehicle: Klucel + Tween-80): 100 % of control

SMILES: CN=C(NC1CCCCC1)c1ccc(NC(=O)c2ccc(C(=O)Nc3ccc(C(=NC)NC4CCCCC4)cc3)cc2)cc1
- T/C (dose: 1.5 mg/kg/injection, schedule: Q01DX005 (ip), vehicle: saline with Tween-80): 100 % of control
- T/C (dose: 3.0 mg/kg/injection, schedule: Q01DX005 (ip), vehicle: saline with Tween-80): 100 % of control
- T/C (dose: 6.0 mg/kg/injection, schedule: Q01DX005 (ip), vehicle: saline with Tween-80): 112 % of control
- T/C (dose: 6.25 mg/kg/injection, schedule: Q01DX005 (ip), vehicle: saline with Tween-80): 105 % of control

SMILES: NC(=O)NC(=O)CCl
- T/C [16]: 105 % of control and 94 % of control
- T/C [17]: 103 % of control and 122 % of control and 94 % of control
